Source: US4914096A, “6-aryl-substituted-4H-thieno(2,3-e)(1,2,4)triazolo(3,4-c)(1,4)diazepines” (priority 1989, dated 1990)
Read-outs that look alike come from different tables or passages of the source.

What was measured:
PAF-induced hypotension = details: rat; for decrease in blood pressure: within 10 sec.
Protocol: Male Wistar rats, weighing approximately 300 gm, are anesthetized and their carotid arteries cannulated to enable their diastolic and systolic arterial blood pressure measurements to be recorded. PAF is then administered intravenously at either 100 or 500 ng/kg, and the blood pressure drop (within 10 sec.) and recovery time required to reach the pre-injection blood pressure level are measured. […] In order to measure the effectiveness of a compound for both the inhibition of blood pressure decreases and shortening of the recovery time, the test compound is administered intravenously over a range of between 5 and 7 dosage levels (1 or 2 test animals per dose) and between 1 and 5 minutes prior to the introduction of PAF to generate an ED50.

[1] = system: PAF-induced human platelet aggregation; assay: Platelet Aggregation Inhibition Assay test (PAIA test); type: cell-based; details: C-16 PAF 0.1 μM or 0.01 μM; human platelet rich plasma
Protocol: All of the compounds of formula I, as well as their pharmaceutically acceptable acid addition salts, are useful as platelet activating factor inhibitors as indicated by their ability to inhibit platelet activating factor (PAF)-induced human platelet aggregation in vitro according to the Platelet Aggregation Inhibition Assay test (PAIA test) as follows:
Human subjects are kept aspirin free for one week and fasted overnight. Platelet rich plasma (PRP) is prepared by centrifugation (200×g.) of freshly drawn blood, anti-coagulated within 0.38% sodium citrate (final concentration). Platelet count is adjusted to 250,000 per μl using platelet poor plasma (PPP) obtained by a second centrifugation (700×g.) of the blood sample. An aliquot (0.38 ml) of the PRP is dispensed into cuvettes and maintained at room temperature (22° C.) until used (but for not more than two hours). […] The aggregation response is quantitated by determining the area under the curve (AUC). The AUC calculated for the inducing agent alone is considered to be one hundred percent. The potential percent inhibition of the aggregation response is determined by dividing the AUC generated in the presence of the compound by the AUC of the inducing agent alone, multiplying by 100 and then subtracting from 100.

[2] = molecular target: T1, Human Platelet PAF Receptor (Homo sapiens, UniProt P25105); assay: Human Platelet PAF Receptor Assay test (Test A); type: binding
T1 construct: endogenous in cells; host or cells: washed platelets from the blood of healthy human donors
Protocol: Human blood is obtained by venipuncture of healthy, human donors into an anti-coagulant mixture containing 3.15% of trisodium citrate and 20 μg/ml of Prostaglandin I2 (PGI2) in a ratio of blood to anti-coagulant of 9:1. Platelet rich plama (PRP) is prepared by centrifugation (250×g) of the blood for 20 minutes at room temperature. The PRP is then centrifuged (900×g) for 10 minutes at room temperature and the platelet pellet is washed two times with Tris-Tyrode's (TT) solution having a pH of 7.4 and containing 0.25% bovine serum albumin (BSA), and to which has been added PGI2 at a final concentration of […]. The platelets are resuspended at […] in TT/BSA containing 1.4 mM CaCl2.2H2 O and 0.7 mM MgCl2.6H2 O. All of the tests are conducted in duplicate and each of the test compounds is evaluated at concentrations of 100, 50, 1 and 0.1 μM. […]
Each mixture is allowed to incubate at room temperature for one hour, after which time the reaction is terminated by the addition of 500 μl of ice cold TT/BSA and centrifugation (900×g) at 4° C. for 10 minutes. […] An additional 2 ml. of Scintiverse II is then added to the vials and, after mixing, the vials are counted for 1 minute in a liquid scintillation spectrometer. The amount of specific binding is calculated as the difference in cpm between the total bound (^3 H)-PAF and non-specifically bound (^3 H)-PAF. […]

[3] = system: PAF-mediated bronchoconstriction; assay: PAF-induced Pulmonary Inflation Pressure (PIP) Increase test (Test B); type: in vivo, guinea pigs; details: Cavia porcellus, po, read-out: Test B ED50
Protocol: Furthermore, in view of their usefulness as PAF receptor antagonists, the compounds of formula I have been found useful as inhibitors of PAF-mediated bronchoconstriction, which property was evaluated by the PAF-induced Pulmonary Inflation Pressure (PIP) Increase test (Test B) as follows:
Male guinea pigs, weighing between 300 and 400 gm, are anesthetized, after which time trachea tube, carotid and jugular catheters are inserted. The test animal is then force ventilated employing a small animal Harvard respirator and the resistance to lung inflation (PIP) is measured utilizing a pressure transducer and recorder. The test compound is administered orally at 30 minutes prior to, intravenously (jugular) at 5 minutes prior to, or intraarterially at 1 to 5 minutes prior to the introduction of PAF. […] Any blood pressure measurements taken are recorded from a transducer attached to the carotid catheter. […] A reading at 15 minutes after the administration of PAF is termed the endpoint PIP. The effect of the test compound on the PIP response is determined by the difference between the percent increase in maximal PIP over baseline for the test animal to which has been administered PAF and the test compound compared to the test animal to which only PAF has been administered to generate an ED 5 C (dose needed to effect a 50% response).

[4] = system: PAF-mediated extravasation; assay: PAF-induced Extravasation test (Test C); type: in vivo, guinea pigs; details: Cavia porcellus, po, read-out: Test C ED50

T1 sequence (P25105 whole entry): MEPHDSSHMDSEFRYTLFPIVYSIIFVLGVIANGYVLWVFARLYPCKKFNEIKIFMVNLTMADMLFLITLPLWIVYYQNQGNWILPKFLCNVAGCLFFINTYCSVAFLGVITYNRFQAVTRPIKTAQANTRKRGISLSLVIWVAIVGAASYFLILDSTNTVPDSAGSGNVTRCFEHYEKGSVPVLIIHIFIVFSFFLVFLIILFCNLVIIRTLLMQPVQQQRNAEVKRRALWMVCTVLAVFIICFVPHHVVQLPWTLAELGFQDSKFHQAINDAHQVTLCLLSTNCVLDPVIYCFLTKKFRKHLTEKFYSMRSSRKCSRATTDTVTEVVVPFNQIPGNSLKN

1-O-alkyl-2-acetyl-sn-glyceryl-3-phosphoryl-choline [PAF]
decrease in blood pressure (PAF-induced hypotension; 100 ng/kg i.v.): 30% | recovery time (PAF-induced hypotension; 500 ng/kg i.v., to pre-injection blood pressure level): 10 min | decrease in blood pressure (PAF-induced hypotension; 500 ng/kg i.v.): 52%

COc1cc(CCc2ccc(C3=NCc4nnc(C)n4-c4sccc43)cc2)cc(OC)c1OC [Example 1, 1-methyl-6-[4-[2-(3,4,5-trimethoxyphenyl)ethyl]phenyl]-4H-thieno[2,3-e][1,2,4]triazolo[3,4-c][1,4]diazepine]
IC50 [1]: 12 µM | IC50 [2]: 0.22 µM | ED50 [3]: 0.8 mg/kg | ED50 [4]: 0.5 mg/kg
